Assay results from PubChem BioAssay AID1845196 (Molecular Pharmacology Branch, DTP, NCI, 2023).

System: 292921-168-R tumor spheroid viability
Test: Anticancer human tumor 292921-168-R patient-derived pancreatic carcinoma cell line growth inhibition
Conditions: spheroids with HUVEC and MSC; for viability, T/C: stronger effect = lower value
Excerpt: Multicellular complex tumor spheroid response to DNA repair inhibitors in combination with DNA-damaging drugs
This study explores the anticancer activities of DNA-damaging drugs and inhibitors of DNA damage repair, both as single agents and in combinations. Complex tumor spheroids comprised of malignant cells, endothelial cells and mesenchymal stem cells served as an in vitro model for human solid tumors. This model system incorporates physiologically relevant features and patient-derived or established malignant cell lines with clinically relevant genetic alterations from many tumor types. Twenty-six patient-derived or established malignant cell lines were evaluated representing sarcoma, melanoma, small cell lung cancer (SCLC), non-small cell lung cancer (NSCLC), as well as bladder, ovarian and pancreatic cancers. The concentration ranges selected for each drug and investigational agent were based upon clinically achievable concentrations if the clinical Cmax of the agent was known.
Compounds. The drugs and compounds olaparib (NSC753686), talazoparib (NSC767125), berzosertib (NSC777718), elimusertib (NSC800525), nedisertib (NSC802822), VX-984 (NSC792969), AZD-1390 (NSC803789), temozolomide (NSC362856), topotecan (NSC609699), trabectedin (NSC813783), staurosporine (NSC755774), and gemcitabine (NSC613327) were obtained from the National Cancer Institute (NCI) Developmental Therapeutics Program Chemical Repository. The FDA-approved anticancer drug set is available from the Developmental Therapeutics Program at https://dtp.cancer.gov/organization/dscb/obtaining/available_plates.htm. […] The stock solutions were prepared in dimethyl sulfoxide (DMSO, Sigma-Aldrich, St. Louis, MO, cat. D2650) at 400-fold the tested concentration and stored at -70 degrees C. Prior to their use, the stock solutions were diluted in fresh medium and the final DMSO concentration in the assay was 0.25% (v/v). All drugs and investigational agents were tested over a range starting from a high concentration at or near the clinical Cmax and decreasing in half-log increments. If the clinical Cmax for an agent had not been determined, the highest concentration tested was 10 microM.
Cell Lines. The patient-derived cancer cell (PDC) lines: 156681-154-R-J1-PDC, 283228-195-R-J1-PDC, 287954-098-R-J1-PDC, 292921-168-R-J2-PDC, 349418-098-R-PDC, 425362-245-T-J1-PDC, 556581-035-R-J1-PDC, and BL0293-F563-PDC were received from the NCI Patient-Derived Models Repository (PDMR, https://pdmr.cancer.gov). The established cell lines HS-SY-2 (RRID:CVCL_8719), MPNST, and SYO-1 (RRID:CVCL_7146) were obtained from the Sloan Kettering Institute. The alveolar soft parts sarcoma cell line ASPS-1 (RRID:CVCL_S738) was established at the NCI and grown from internal seed stocks. The following established cell lines were purchased from the American Type Culture Collection (ATCC, Manassas, VA): G-401 (ATCC, cat. CRL-1441, RRID:CVCL_0270), SW982 (ATCC, cat. HTB-93, RRID:CVCL_1734), VA-ES-BJ (ATCC, cat. CRL-2138, RRID:CVCL_1785), NCI-H719 (ATCC, cat. CRL-5837, RRID:CVCL_1582), NCI-H196 (ATCC, cat. CRL-5823, RRID:CVCL_1509), NCI-H841 (ATCC, cat. CRL-5845, RRID:CVCL_1595), NCI-H1618 (ATCC, cat. CRL-5879, RRID:CVCL_1480), NCI-H1876 (ATCC, cat. CRL-5902, RRID:CVCL_1503), DMS 114 (ATCC, cat. CRL-2066; RRID:CVCL_1174), NCI-H211 (ATCC, cat. CRL-5824; RRID:CVCL_1529), and SW 1271 (ATCC, cat. CRL-2177, RRID:CVCL_1716). The small cell lung cancer cell line COR-L88 was purchased from Sigma-Aldrich (cat. 92031917-1VL, RRID:CVCL_1141). The non-small cell lung cancer cell lines NCI-H226 (RRID:CVCL_1544) and NCI-H322M (RRID:CVCL_1557) were established at the NCI and grown from internal seed stocks. Pooled donor human umbilical vein endothelial cells (HUVEC, Lonza, cat. CC-2519) and human mesenchymal stem cells (hMSC, Lonza, cat. PT-2501) were purchased from Lonza (Walkersville, MD).
Cell Culture. All cells were maintained in an incubator at 37 degrees C and 5% CO2 with 95% humidity. […]
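Further: spheroids exposed to compounds for 7 days.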

**Q.** With `Cn1nnc2c(C(N)=O)ncn2c1=O` as the molecule, how does the viability, T/C (compound 1 µM) read?
**A.** Its viability, T/C is 94.3% [middle of 10 runs].

**Q.** And the viability, T/C (compound 3.16 µM)?
**A.** Its viability, T/C is 95.5% [middle of 10 runs].

**Q.** And the viability, T/C (compound 10 µM)?
**A.** Its viability, T/C is 94.8% [middle of 10 runs].

**Q.** What about the viability, T/C (compound 31.6 µM) of the same molecule?
**A.** The viability, T/C was 90.8% [middle of 10 runs].

**Q.** And the viability, T/C (compound 100 µM)?
**A.** The viability, T/C was 85.8% [middle of 10 runs].

**Q.** What about the IC50 (compound alone, run of 10/17/2019) of the same molecule?
**A.** Its IC50 is over 100 µM.

**Q.** `COc1cc(C)[nH]c(=O)c1CN1CCc2c(Cl)cc(C(OC)C3COC3)c(Cl)c2C1=O` (stereo unspecified) + Cn1nnc2c(C(N)=O)ncn2c1=O was tested. Which IC50 (curve of first compound, second compound 1 µM) did it give?
**A.** The IC50 was over 10 µM.

**Q.** What about the IC50 (curve of first compound, second compound 3.16 µM) of the same molecule?
**A.** Its IC50 is over 10 µM.

**Q.** What about the IC50 (curve of first compound, second compound 10 µM) of the same molecule?
**A.** The IC50 was over 10 µM.

**Q.** What about the IC50 (curve of first compound, second compound 31.6 µM) of the same molecule?
**A.** The IC50 was over 10 µM.

**Q.** What about the IC50 (curve of first compound, second compound 100 µM) of the same molecule?
**A.** The IC50 was over 10 µM.

**Q.** And the viability, T/C (second compound 1 µM, first compound 0.0316 µM)?
**A.** Its viability, T/C is 94.7%.

**Q.** And the viability, T/C (second compound 1 µM, first compound 0.1 µM)?
**A.** Its viability, T/C is 94.7%.

**Q.** What about the viability, T/C (second compound 1 µM, first compound 0.316 µM) of the same molecule?
**A.** Its viability, T/C is 95.4%.

**Q.** And the viability, T/C (second compound 1 µM, first compound 1 µM)?
**A.** The viability, T/C was 88.7%.

**Q.** And the viability, T/C (second compound 1 µM, first compound 3.16 µM)?
**A.** The viability, T/C was 81.6%.

**Q.** What about the viability, T/C (second compound 1 µM, first compound 10 µM) of the same molecule?
**A.** Its viability, T/C is 72.6%.

**Q.** What about the viability, T/C (second compound 3.16 µM, first compound 0.0316 µM) of the same molecule?
**A.** Its viability, T/C is 102%.

**Q.** And the viability, T/C (second compound 3.16 µM, first compound 0.1 µM)?
**A.** The viability, T/C was 100%.

**Q.** And the viability, T/C (second compound 3.16 µM, first compound 0.316 µM)?
**A.** The viability, T/C was 93.6%.

**Q.** What about the viability, T/C (second compound 3.16 µM, first compound 1 µM) of the same molecule?
**A.** Its viability, T/C is 79.8%.

**Q.** What about the viability, T/C (second compound 3.16 µM, first compound 3.16 µM) of the same molecule?
**A.** The viability, T/C was 88.2%.

**Q.** What about the viability, T/C (second compound 3.16 µM, first compound 10 µM) of the same molecule?
**A.** Its viability, T/C is 84.5%.

**Q.** What about the viability, T/C (second compound 10 µM, first compound 0.0316 µM) of the same molecule?
**A.** Its viability, T/C is 93.4%.

**Q.** What about the viability, T/C (second compound 10 µM, first compound 0.1 µM) of the same molecule?
**A.** Its viability, T/C is 87.4%.

**Q.** What about the viability, T/C (second compound 10 µM, first compound 0.316 µM) of the same molecule?
**A.** The viability, T/C was 98%.

**Q.** What about the viability, T/C (second compound 10 µM, first compound 1 µM) of the same molecule?
**A.** Its viability, T/C is 80.2%.

**Q.** What about the viability, T/C (second compound 10 µM, first compound 3.16 µM) of the same molecule?
**A.** The viability, T/C was 84.4%.

**Q.** What about the viability, T/C (second compound 10 µM, first compound 10 µM) of the same molecule?
**A.** The viability, T/C was 75.2%.

**Q.** What about the viability, T/C (second compound 31.6 µM, first compound 0.0316 µM) of the same molecule?
**A.** Its viability, T/C is 91.5%.

**Q.** And the viability, T/C (second compound 31.6 µM, first compound 0.1 µM)?
**A.** Its viability, T/C is 94.2%.

**Q.** What about the viability, T/C (second compound 31.6 µM, first compound 0.316 µM) of the same molecule?
**A.** The viability, T/C was 89.4%.

**Q.** What about the viability, T/C (second compound 31.6 µM, first compound 1 µM) of the same molecule?
**A.** Its viability, T/C is 85.1%.

**Q.** What about the viability, T/C (second compound 31.6 µM, first compound 3.16 µM) of the same molecule?
**A.** The viability, T/C was 78.5%.

**Q.** What about the viability, T/C (second compound 31.6 µM, first compound 10 µM) of the same molecule?
**A.** The viability, T/C was 80.2%.

**Q.** What about the viability, T/C (second compound 100 µM, first compound 0.0316 µM) of the same molecule?
**A.** Its viability, T/C is 89.5%.

**Q.** And the viability, T/C (second compound 100 µM, first compound 0.1 µM)?
**A.** The viability, T/C was 91.1%.

**Q.** What about the viability, T/C (second compound 100 µM, first compound 0.316 µM) of the same molecule?
**A.** Its viability, T/C is 88.1%.

**Q.** What about the viability, T/C (second compound 100 µM, first compound 1 µM) of the same molecule?
**A.** Its viability, T/C is 78%.

**Q.** What about the viability, T/C (second compound 100 µM, first compound 3.16 µM) of the same molecule?
**A.** Its viability, T/C is 75.9%.

**Q.** What about the viability, T/C (second compound 100 µM, first compound 10 µM) of the same molecule?
**A.** The viability, T/C was 82%.
